Results on six compounds are retold here after patent EP0171977A1, “Phthalimide derivatives, compositions containing them and a process for preparing them” (SANKYO COMPANY LIMITED, priority 1984, dated 1986).

In assay [1] the test system is right atrium of a guinea pig heart. In words: Effect on heart beat: spontaneous contraction of excised right atrium. The following applies: for inhibition at 100 µg/mL: Concentration 1x10^-4 g/ml; for inhibition at 30 µg/mL: Concentration 3x10^-5 g/ml. On the procedure: The right atrium of a guinea pig heart was excised and placed in a bath containing Krebs - Henseleit solution maintained at 37°C, through which was bubbled a gas containing 95% oxygen and 5% carbon dioxide. […] The results, in terms of the percentage decrease (-) or increase (+) in the rate of heart beat, for the compounds of the invention and for glyceryl trinitrate are shown in Table 2.

The subject of assay [2] is collateral blood vessels. As to the kind of experiment: Selective vasodilative effect on collateral blood vessels (coronary vascular resistance, method of Winburg et al.). The following applies: anaesthetized dogs, test compound 30 ug/kg intravenously vs glyceryl trinitrate 3 µg/kg; for Glyceryl trinitrate ratio RL/RT: ratio of selectivity (RL/RT) of test compound to that of glyceryl trinitrate; for Glyceryl trinitrate ratio RL: ratio of vascular resistance (RL) of test compound to that of glyceryl trinitrate. Format: in vivo. On the procedure: The test animals employed in this experiment were dogs. Each animal was anaesthetized with pentobarbital and the chest was opened to expose the heart, whilst respiration was maintained artificially.
Following the method of Winburg et al. [J. Pharmacol. Exp. Ther., 168, 70-95 (1969)], the vascular resistance (RL) between two points, one at a large coronary artery on the cardiac surface and the other at a small coronary artery, was calculated by dividing the blood pressure difference between these two points by the blood flow. The peripheral resistance of the coronary artery (RT) was determined and the value RL was divided by the value RT, to give the selectivity (RL/RT).
Each compound of the invention tested was administered intravenously at a dose of 30 ug/kg body weight immediately prior to the measurement of vascular resistance. The same experiment was carried out employing glyceryl trinitrate at a dose of 3 µg/kg body weight and the results are reported in the following Table 1 as the glyceryl trinitrate ratios, i.e. the ratio between the vascular resistance of the test compound and that of glyceryl trinitrate or the selectivity of the test compound and that of glyceryl trinitrate.

[3] abbreviates: Cavia porcellus, Krebs - Henseleit solution, 37°C, read-out: percentage decrease (-) or increase (+) in the rate of heart beat.
The mark [4] stands for this setting: Cavia porcellus, Concentration 1x10^-5 g/ml, Krebs - Henseleit solution, 37°C, read-out: percentage decrease (-) or increase (+) in the rate of heart beat.
[5] abbreviates: Cavia porcellus, read-out: percentage decrease (-) or increase (+) in the rate of heart beat.

Molecules are shown by their SMILES. Where two headings read alike, the source gives them in different places.

As to `CCN(CC)CCOc1ccc2c(c1)C(=O)N(CCO[N+](=O)[O-])C2=O` [Compound No. 25, N-(2-nitrooxyethyl)-4-(2-N,N-diethylaminoethoxy)-phthalimide], in assay [1] (setting [3]), the inhibition at 100 µg/mL was 73% and the inhibition at 30 µg/mL is 67%. Besides, in assay [1] (setting [4]), the inhibition at 10 µg/mL was 53%. Also, in assay [2], the “Glyceryl trinitrate ratio RL/RT” value is listed as 1.6 and the “Glyceryl trinitrate ratio RL” value was found to be 1.6.

`CC(C)N(CCOc1ccc2c(c1)C(=O)N(CCO[N+](=O)[O-])C2=O)C(C)C` [Compound No. 27, N-(2-nitrooxyethyl)-4-(2-N,N-diisopropylamino-ethoxy)phthalimide]: in assay [1] (setting [3]), the inhibition at 100 µg/mL was found to be 71% and the inhibition at 30 µg/mL was determined as 64%. Further, the inhibition at 10 µg/mL in assay [1] (setting [4]) worked out at 59%. For the same compound, in assay [2], the “Glyceryl trinitrate ratio RL/RT” value is reported as 1.4 and the “Glyceryl trinitrate ratio RL” value was 1.8.

As for `CN(C)CCCOc1ccc2c(c1)C(=O)N(CCO[N+](=O)[O-])C2=O` [Compound No. 51, N-(2-nitrooxyethyl)-4-(3-N,N-dimethylamino-propoxy)phthalimide], in assay [1] (setting [3]), the inhibition at 100 µg/mL turned out to be 64% and the inhibition at 30 µg/mL was 58%. For the same compound, the inhibition at 10 µg/mL in assay [1] (setting [4]) turned out to be 31%. Besides, in assay [2], the “Glyceryl trinitrate ratio RL/RT” value came out at 1.4 and the “Glyceryl trinitrate ratio RL” value came to 1.6.

`CC(COc1ccc2c(c1)C(=O)N(CCO[N+](=O)[O-])C2=O)CN(C)C` (centres unmarked) [Compound No. 54, N-(2-nitrooxyethyl)-4-(3-N,N-dimethylamino-2-methylpropoxy)phthalimide]: in assay [1] (setting [3]), the inhibition at 100 µg/mL came out at 62% and the inhibition at 30 µg/mL stood at 56%. Besides, in assay [1] (setting [4]), the inhibition at 10 µg/mL amounted to 37%. In assay [2], the “Glyceryl trinitrate ratio RL/RT” value is 2.1 and the “Glyceryl trinitrate ratio RL” value stood at 1.7.

As for `O=C1c2ccc(OCCN3CCCCC3)cc2C(=O)N1CCO[N+](=O)[O-]` [Compound No. 59, N-(2-nitrooxyethyl)-4-(2-piperidinoethoxy)-phthalimide], in assay [1] (setting [3]), the inhibition at 100 µg/mL turned out to be 74% and the inhibition at 30 µg/mL came to 61%. The inhibition at 10 µg/mL in assay [1] (setting [4]) came out at 32%. Besides, in assay [2], the “Glyceryl trinitrate ratio RL/RT” value is given as 1.6 and the “Glyceryl trinitrate ratio RL” value is 1.2.

In the case of `O=[N+]([O-])OCC(CO[N+](=O)[O-])O[N+](=O)[O-]` [Glyceryl trinitrate, reference compound], in assay [1] (setting [5]), the inhibition at 1 µg/mL amounted to 0%, the inhibition at 3 µg/mL was -1% and the inhibition at 10 µg/mL came to 0%. Also, the “change in the heart beat” value in assay [1] (added at doses between 10^-6 and 10 ^5 g/ml) was “very little or no change”.
